Laboratory results: patent publication US20050250093A1, “Hepatitis c virus sub-genomic replicons” (priority 2002, published 2005)

Assays:
Huh-7 cells [1] = experiment: Analysis of replicon copy number by TaqMan; assay type: cell-based, human; conditions: real-time PCR with primers and probes in the neo gene on total RNA from replicon cells
Experimental: Next, replicon RNA was quantified by TaqMan. Real-time PCR was conducted with primers and probes in the neo gene on total RNA isolated from the replicon cells and on standard neo containing DNA. Copy numbers of the replicon were calculated based on standard curve generated from known amount of in vitro transcribed RNA. J4 M/S contained about 147 copies/cell, BB7-F1 contained 57 copies/cell, HCV 1a replicon has 165 copies/cell, BB7/H77NS5B has 29 copies/cell. For a positive control, HCV BB7 replicon that has 1500 copies/cell while Huh-7 cells served as negative controls.
Cells were trypinized and counted to determine cell number. The total cellular RNA was isolated using RNeasy Mini Kit (Qiagen) following the manufacturer's protocol. The RNA was stored at −80° C. or assayed by TaqMan quantitative RT-PCR. For analysis by TaqMan PCR, a master mix was prepared using TaqMan EZ RT-PCR Kit (Applied Biosystems #403028), TaqMan PDAR Control Reagent Human Cyclophilin (Applied Biosystems #4310883E), custom primer Neo^R fwd CCG GCT ACC TGC CCA TTC [SEQ ID NO:28] […] Data was analyzed by leaving the baseline to default level on both layers, and set a threshold to an equal value for both dye layers. […] The copy number for each replicon sample was calculated by taking the sample's Ct value, minus the line intercept, divided by the slope of the line.

Huh-7 cells [2] = experiment: Stable replication / G418 resistance after electroporation of replicon RNA into Huh-7 cells; assay type: cell-based, human; conditions: replicon RNA prepared in vitro, G418 selection
Experimental: In the present invention, certain chimeric replicon constructs were generated from pHCVrep1b(BB7) with sequences substituted with either type 1aHCV H77 sequence or by HCV type 1b J4 strain sequence. […] The methods for constructing these replicons are described herein.
RNA transcribed from the above replicon DNA was electroporated into Huh-7 cells according to the procedures in the examples. G418 resistant cells were obtained by incubating the cells in G418-containing media. Once the cells were amplified, total cellular protein was separated on SDS-PAGE and probed by NS5A serum to assess whether HCV proteins were expressed. As predicted, all three replicon cell lines expressed NS5A as shown on figure. Genomic DNA and RNA were also isolated from each replicon cell lines. PCR reactions on genomic DNA were carried out to assess the possibility that the G418 resistance was due to expression of the phosphatransferase from integrated neo resistant gene into the Huh-7 cell genome. […] Therefore, the date indicate that it is unlikely that the resistance is due to integration of residue DNA in our RNA preparation into the genome of Huh-7 cells.
Five […]g of replicon RNA was electroporated into 5×10^6 cells of the hepatoma cell line, Huh-7. […] Huh-7 cells were pelleted, washed, counted and resuspended to a final concentration of 1×10^7 cells/ml in Opti-MEM media (Invitrogen). […]

type 1a replicon system = experiment: Susceptibility of the type 1a replicon system to interferon and antiviral agents; assay type: cell-based, HCV; conditions: type 1a replicon vs type 1b replicon system

Substance	replicon copy number (Huh-7 cells [1])	generation of stable cell lines / stable replication after transfection into Huh-7 cells (Huh-7 cells [2])	susceptibility compared with the type 1b replicon system (type 1a replicon system)
HCV 1a replicon	165 copies/cell	able to stably replicate and confer resistance to G418	
interferon			similar
